Assay results taken from ChEMBL document CHEMBL1955741, “Identification of fused bicyclic heterocycles as potent and selective 5-HT(2A) receptor antagonists for the treatment of insomnia” (Bioorg Med Chem Lett, 2012).
Calls of active or inactive are those of the source. No cut-off for these calls is given here.

Legend:
[1] = biological target: T1, 5-hydroxytryptamine receptor 2C (Homo sapiens, UniProt P28335)
T1 sequence (P28335 whole entry): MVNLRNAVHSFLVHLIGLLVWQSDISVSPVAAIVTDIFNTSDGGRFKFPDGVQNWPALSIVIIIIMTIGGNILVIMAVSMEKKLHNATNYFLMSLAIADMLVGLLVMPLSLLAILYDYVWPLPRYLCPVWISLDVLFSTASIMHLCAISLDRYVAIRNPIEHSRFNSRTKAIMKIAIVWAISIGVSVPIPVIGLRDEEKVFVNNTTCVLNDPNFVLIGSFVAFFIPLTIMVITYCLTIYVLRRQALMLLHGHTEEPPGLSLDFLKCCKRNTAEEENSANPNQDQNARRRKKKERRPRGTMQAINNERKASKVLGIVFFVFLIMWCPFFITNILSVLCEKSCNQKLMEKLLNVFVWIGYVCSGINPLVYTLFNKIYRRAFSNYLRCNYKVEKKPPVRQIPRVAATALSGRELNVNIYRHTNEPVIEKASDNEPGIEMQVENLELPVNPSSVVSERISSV

[2] = biological target: 5-hydroxytryptamine receptor 2A (Homo sapiens, UniProt P28223)
5-hydroxytryptamine receptor 2A, sequence (P28223 whole entry): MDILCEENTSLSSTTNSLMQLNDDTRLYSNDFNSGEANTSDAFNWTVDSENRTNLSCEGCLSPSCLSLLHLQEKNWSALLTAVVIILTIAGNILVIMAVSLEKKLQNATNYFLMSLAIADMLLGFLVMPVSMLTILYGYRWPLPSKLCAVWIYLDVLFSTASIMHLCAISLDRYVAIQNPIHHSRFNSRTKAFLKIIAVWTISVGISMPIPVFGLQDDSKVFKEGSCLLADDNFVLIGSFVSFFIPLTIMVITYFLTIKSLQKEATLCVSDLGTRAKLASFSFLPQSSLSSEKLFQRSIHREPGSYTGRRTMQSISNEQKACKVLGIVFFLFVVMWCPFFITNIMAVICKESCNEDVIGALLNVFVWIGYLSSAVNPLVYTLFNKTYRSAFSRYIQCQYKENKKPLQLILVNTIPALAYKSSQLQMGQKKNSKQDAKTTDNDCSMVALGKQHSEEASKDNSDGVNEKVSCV
Description: Displacement of [125I]-DOI from recombinant human 5HT2A receptor

Rattus norvegicus [3] = experiment: Inhibition of DOI-induced hypolocomotion in rat at 3 mg/kg coadministered with DOI 10 mins prior testing; type: functional, organism-based; parameters: dose 3 mg/kg
Rattus norvegicus [4] = experiment: Volume of distribution at steady state in […] rat; type: ADME, organism-based; settings: in vivo
[5] = Plasma concentration in rat at 3 mg/kg after 0.75 hrs; type: ADME, organism-based; parameters: dose 3 mg/kg
[6] = Half life in po dosed rat; type: ADME, organism-based; settings: in vivo
Rattus norvegicus [7] = experiment: Total clearance in iv dosed rat; type: ADME, organism-based; settings: in vivo
Rattus norvegicus [8] = experiment: Oral bioavailability in rat; type: ADME, organism-based; settings: in vivo

SMILES	Ki [1]	Ki [2]	also measured
Cn1cc(Br)c(C(=O)N2CCN(CCc3ccc(F)cc3)CC2)n1	–	–	Activity (Rattus norvegicus [3]): Active; Vdss (Rattus norvegicus [4]): 8.1 L/kg; concentration at 0.75 h [5]: 8.3 ng/mL; half-life [6]: 1.4 h; clearance (Rattus norvegicus [7]): 9.3 L/h/kg; bioavailability (Rattus norvegicus [8]): 9%
O=C(c1cn2ccccc2n1)N1CCN(CCc2ccc(F)cc2F)CC1	0.596 µM	0.0043 µM	–
O=C(c1nc2ccccn2c1Br)N1CCN(CCc2ccc(F)cc2F)CC1	0.581 µM	0.0019 µM	–
O=C(c1cc2ccccn2n1)N1CCN(CCc2ccc(F)cc2F)CC1	0.467 µM	0.0057 µM	–
O=C(c1cnn2c1CCCC2)N1CCN(CCc2ccc(F)cc2F)CC1	2.88 µM	0.018 µM	–
O=C(c1nn2ccccc2c1Br)N1CCN(CCc2ccc(F)cc2F)CC1	0.496 µM	0.0008 µM	–
O=C(c1cc(Br)cn2ccnc12)N1CCN(CCc2ccc(F)cc2F)CC1	0.474 µM	0.005 µM	–
N#Cc1cn2cccc(C(=O)N3CCN(CCc4ccc(F)cc4F)CC3)c2n1	6.9 µM	0.0028 µM	–

Further molecules by falling Ki [1], results first:

Ki [1]	Ki [2]	SMILES	also measured
0.394 µM	0.0006 µM	O=C(c1nn2ccccc2c1Cl)N1CCN(CCc2ccc(F)cc2F)CC1	–
0.246 µM	0.0018 µM	O=C(c1cnn2ccccc12)N1CCN(CCc2ccc(F)cc2F)CC1	–
0.194 µM	0.0004 µM	O=C(c1cccc2ccnn12)N1CCN(CCc2ccc(F)cc2F)CC1	–
0.152 µM	0.0014 µM	Nc1cccc2nc(C(=O)N3CCN(CCc4ccc(F)cc4F)CC3)cn12	–
